Data from US9927430B2, “Pro-substrates for live cell applications” (PROMEGA CORPORATION, priority 2014, dated 2018).
Entries after “also recorded” stand apart in the source; their conditions may differ.

Experiment: Furimazine release by hydrolysis at different pH, HPLC at 262 nm
Format: physicochemical
Method: The effect of pH on the hydrolysis of the disclosed compounds may be useful for high-throughput screening (HTS). The percent furimazine released in 1 mM of PBI-5455 solutions with different pH values ranging from 5.9 to 7.6 were detected over time using HPLC at 262 nm. […] These compounds can be used to support HTS operation methods to enhance the initial brightness by adjusting pH or adding an appropriate nucleophile.
As shown in Example 23, PBI-5455 is stable in slightly acidic buffer for 10 hrs. […] For BRET applications to detect protein-protein and/or ligand-protein interactions, if it is a one-time point reading, the concentration in media could be higher than 100-200 μM.

CC(=O)NC(CC(=O)O)C(=O)NC(CC(=O)O)C(=O)NC(CC(=O)O)C(=O)N(C)CCN(CCCN1CCOCC1)C(=O)Oc1c(Cc2ccco2)nc2c(Cc3ccccc3)nc(-c3ccccc3)cn12 (centres unmarked) [PBI-5455, Ac-DDD-MOP-C2-FRZ]
release of furimazine by hydrolysis (1 mM solutions, pH values ranging from 5.9 to 7.6, over time, HPLC at 262 nm (FIG. 14)): pH dependent; also recorded: The higher the pH, the faster the release | stable in buffer (time) (slightly acidic buffer): 10 h
